Assay results taken from patent US20260285850A1, “SUBSTITUTED OXAZOLIDINONES AND IMIDAZOLINONES AS HERBICIDES” (FMC CORPORATION, priority 2023, published 2026).

Experiments:
Type in all cases: in vivo
[1] = tested on: green foxtail (Setaria viridis); assay: Test A postemergence application, visual injury rating 0-100; settings: 10 days
Text: (§1) Seeds of plant species selected from barnyardgrass (Echinochloa crus-galli), blackgrass (Alopecurus myosuroides), corn (Zea mays), foxtail, giant (giant foxtail, Setaria faberi), green foxtail (Setaria viridis), goosegrass (Eleusine indica), kochia (Bassia scoparia), oat, wild (wild oat, Avena fatua), palmer (palmer amaranth, palmer pigweed, Amaranthus palmeri), ragweed (common ragweed, Ambrosia artemisiifolia), ryegrass, Italian (italian ryegrass, Lolium multiflorum), soybean (Glycine max) and wheat (Triticum aestivum) were planted into a blend of loam soil and sand and treated preemergence with a directed soil spray using test chemicals formulated in a non-phytotoxic solvent mixture which included a surfactant.
(§2) At the same time, plants selected from these crops and weed species and also galium (catchweed bedstraw, Galium aparine) and horseweed (Erigeron canadensis) were planted in pots containing the same blend of loam soil and sand and treated with postemergence applications of test chemicals formulated in the same manner. Plants ranged in height from 2 to 10 cm and were in the one- to two-leaf stage for the postemergence treatment. Treated plants and untreated controls were maintained in a greenhouse for 10 days, after which time all treated plants were compared to untreated controls and visually evaluated for injury. Plant response ratings, summarized in Table A, are based on a 0 to 100 scale where 0 is no effect and 100 is complete control. A dash (-) response means no test result.

[2] = tested on: ragweed (common ragweed, Ambrosia artemisiifolia); assay: as above; settings: 10 days
Text: as §1, §2

[3] = tested on: barnyardgrass (Echinochloa crus-galli); assay: as above; settings: 10 days
Text: as §1, §2

[4] = tested on: wheat (Triticum aestivum); assay: as above; settings: 10 days
Text: as §1, §2

[5] = tested on: palmer (palmer amaranth, palmer pigweed, Amaranthus palmeri); assay: as above; settings: 10 days
Text: as §1, §2

[6] = tested on: horseweed (Erigeron canadensis); assay: as above; settings: 10 days
Text: as §1, §2

[7] = tested on: oat, wild (wild oat, Avena fatua); assay: as above; settings: 10 days
Text: as §1, §2

[8] = tested on: blackgrass (Alopecurus myosuroides); assay: as above; settings: 10 days
Text: as §1, §2

[9] = tested on: corn (Zea mays); assay: as above; settings: 10 days
Text: as §1, §2

[10] = tested on: kochia (Bassia scoparia); assay: as above; settings: 10 days
Text: as §1, §2

[11] = tested on: soybean (Glycine max); assay: as above; settings: 10 days
Text: as §1, §2

[12] = tested on: ryegrass, Italian (italian ryegrass, Lolium multiflorum); assay: as above; settings: 10 days
Text: as §1, §2

[13] = tested on: green foxtail (Setaria viridis); assay: Test A preemergence soil spray, visual injury rating 0-100; settings: 10 days, 0 = no effect, 100 = complete control
Summary of the method: (§3)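 Greenhouse test: loam/sand pots received a surfactant-containing formulation, as a preemergence directed soil spray or a postemergence spray on young plants. Injury was judged visually at day 10 relative to untreated controls.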

[14] = tested on: ragweed (common ragweed, Ambrosia artemisiifolia); assay: as above; settings: 10 days, 0 = no effect, 100 = complete control
Summary of the method: as §3

[15] = tested on: barnyardgrass (Echinochloa crus-galli); assay: as above; settings: 10 days, 0 = no effect, 100 = complete control
Summary of the method: as §3

[16] = tested on: wheat (Triticum aestivum); assay: as above; settings: 10 days, 0 = no effect, 100 = complete control
Summary of the method: as §3

[17] = tested on: palmer (palmer amaranth, palmer pigweed, Amaranthus palmeri); assay: as above; settings: 10 days, 0 = no effect, 100 = complete control
Summary of the method: as §3

[18] = tested on: oat, wild (wild oat, Avena fatua); assay: as above; settings: 10 days, 0 = no effect, 100 = complete control
Summary of the method: as §3

[19] = tested on: blackgrass (Alopecurus myosuroides); assay: as above; settings: 10 days, 0 = no effect, 100 = complete control
Summary of the method: as §3

[20] = tested on: corn (Zea mays); assay: as above; settings: 10 days, 0 = no effect, 100 = complete control
Summary of the method: as §3

[21] = tested on: kochia (Bassia scoparia); assay: as above; settings: 10 days, 0 = no effect, 100 = complete control
Summary of the method: as §3

[22] = tested on: soybean (Glycine max); assay: as above; settings: 10 days, 0 = no effect, 100 = complete control
Summary of the method: as §3

[23] = tested on: ryegrass, Italian (italian ryegrass, Lolium multiflorum); assay: as above; settings: 10 days, 0 = no effect, 100 = complete control
Summary of the method: as §3

[24] = tested on: ducksalad (Heteranthera limosa); assay: Test B flooded paddy test, visual plant response rating 0-100; settings: 250 g ai/ha, Flood, applied to paddy water, evaluated after 13 days
Method: (§4) Plant species in the flooded paddy test selected from barnyardgrass (Echinochloa crusgalli), ducksalad (Heteranthera limosa), rice (Oryza sativa), and sedge, umbrella (small-flower umbrella sedge, Cyperus difformis) were grown to the 2-leaf stage for testing. At time of treatment, test pots were flooded to 3 cm above the soil surface, treated by application of test compounds directly to the paddy water, and then maintained at that water depth for the duration of the test. Treated plants and controls were maintained in a greenhouse for 13 days, after which time all species were compared to controls and visually evaluated. […] A dash (-) response means no test result.

[25] = tested on: sedge, umbrella (small-flower umbrella sedge, Cyperus difformis); assay: as above; settings: 250 g ai/ha, Flood, applied to paddy water, evaluated after 13 days
Method: as §4

[26] = tested on: barnyardgrass (Echinochloa crusgalli); assay: as above; settings: 250 g ai/ha, Flood, applied to paddy water, evaluated after 13 days
Method: as §4

[27] = tested on: rice (Oryza sativa); assay: as above; settings: 250 g ai/ha, Flood, applied to paddy water, evaluated after 13 days
Method: as §4

[28] = 31 g ai/ha, postemergence, 0 = no effect, 100 = complete control
[29] = Postemergence, 125 g ai/ha, 0 is no effect, 100 is complete control

For CC1(C(=O)NC2CCC(C(=O)O)C2)CN(c2cc(F)cc(F)c2)C(=O)O1 (centres unmarked) [Compound 9], the “Foxtail, Green plant response rating (0-100)” value [1, 28] was 30, the “Foxtail, Green plant response rating (0 to 100 scale)” value [1, 29] was 90 and the “Ragweed plant response rating (0-100)” value [2, 28] was 0. For the same molecule, the “Ragweed plant response rating (0 to 100 scale)” value [2, 29] was 0, the “Barnyardgrass plant response rating (0-100)” value [3, 28] was 70 and the “Barnyardgrass plant response rating (0 to 100 scale)” value [3, 29] was 100. For the same molecule, the “Wheat plant response rating (0-100)” value [4, 28] was 90, the “Wheat plant response rating (0 to 100 scale)” value [4, 29] was 90 and the “Amaranth, Palmer plant response rating (0-100)” value [5, 28] was 10. The “Amaranth, Palmer / Pigweed, Palmer plant response rating (0 to 100 scale)” value [5, 29] was 90, the “Horseweed plant response rating (0-100)” value [6, 28] was 0 and the “Horseweed plant response rating (0 to 100 scale)” value [6, 29] was 10. For the same molecule, the “Oat, Wild plant response rating (0-100)” value [7, 28] was 90, the “Oat, Wild plant response rating (0 to 100 scale)” value [7, 29] was 90 and the “Blackgrass plant response rating (0-100)” value [8, 28] was 60. The “Blackgrass plant response rating (0 to 100 scale)” value [8, 29] was 70, the “Corn plant response rating (0-100)” value [9, 28] was 20 and the “Corn plant response rating (0 to 100 scale)” value [9, 29] was 100. The “Kochia plant response rating (0-100)” value [10, 28] was 50, the “Kochia plant response rating (0 to 100 scale)” value [10, 29] was 80 and the “Soybean plant response rating (0-100)” value [11, 28] was 60. For the same molecule, the “Soybean plant response rating (0 to 100 scale)” value [11, 29] was 70, the “Ryegrass, Italian plant response rating (0-100)” value [12, 28] was 50 and the “Ryegrass, Italian plant response rating (0 to 100 scale)” value [12, 29] was 80. The “Foxtail, Green plant response rating (0-100)” value ([13]; 31 g ai/ha) was 0, the “Foxtail, Green plant response rating (0 to 100 scale)” value ([13]; 125 g ai/ha) was 90 and the “Ragweed plant response rating (0-100)” value ([14]; 31 g ai/ha) was 0. The “Ragweed plant response rating (0 to 100 scale)” value ([14]; 125 g ai/ha) was 0, the “Barnyardgrass plant response rating (0-100)” value ([15]; 31 g ai/ha) was 0 and the “Barnyardgrass plant response rating (0 to 100 scale)” value ([15]; 125 g ai/ha) was 50. For the same molecule, the “Wheat plant response rating (0-100)” value ([16]; 31 g ai/ha) was 80, the “Wheat plant response rating (0 to 100 scale)” value ([16]; 125 g ai/ha) was 90 and the “Amaranth, Palmer plant response rating (0-100)” value ([17]; 31 g ai/ha) was 0. For the same molecule, the “Amaranth, Palmer plant response rating (0 to 100 scale)” value ([17]; 125 g ai/ha) was 10, the “Oat, Wild plant response rating (0-100)” value ([18]; 31 g ai/ha) was 0 and the “Oat, Wild plant response rating (0 to 100 scale)” value ([18]; 125 g ai/ha) was 90. For the same molecule, the “Blackgrass plant response rating (0-100)” value ([19]; 31 g ai/ha) was 0, the “Blackgrass plant response rating (0 to 100 scale)” value ([19]; 125 g ai/ha) was 80 and the “Corn plant response rating (0-100)” value ([20]; 31 g ai/ha) was 10. For the same molecule, the “Corn plant response rating (0 to 100 scale)” value ([20]; 125 g ai/ha) was 80, the “Kochia plant response rating (0-100)” value ([21]; 31 g ai/ha) was 0 and the “Kochia plant response rating (0 to 100 scale)” value ([21]; 125 g ai/ha) was 30. For the same molecule, the “Soybean plant response rating (0-100)” value ([22]; 31 g ai/ha) was 0, the “Soybean plant response rating (0 to 100 scale)” value ([22]; 125 g ai/ha) was 80 and the “Ryegrass, Italian plant response rating (0-100)” value ([23]; 31 g ai/ha) was 0. The “Ryegrass, Italian plant response rating (0 to 100 scale)” value ([23]; 125 g ai/ha) was 90, the “Plant response rating, Ducksalad (0 to 100 scale, 0 is no effect and 100 is complete control)” value [24] was 0 and the “Plant response rating, Sedge, Umbrella (0 to 100 scale, 0 is no effect and 100 is complete control)” value [25] was 0. The “Plant response rating, Barnyardgrass (0 to 100 scale, 0 is no effect and 100 is complete control)” value [26] was 0 and the “Plant response rating, Rice (0 to 100 scale, 0 is no effect and 100 is complete control)” value [27] was 0.
